Calls of active or inactive are those of the source. No cut-off for these calls is given here.
Columns and labels:
[1] = tested on: von Hippel-Lindau disease tumor suppressor/Epidermal growth factor receptor (Homo sapiens), P00533+P40337 [L858R,T790M,C797S]; assay: PROTAC activity at VHL/EGFR L858R/T790M/C797S mutant in human H1975-TM cells assessed as downregulation of AKT phosphorylation incubated for 48 hrs by Western blot analysis; format: cell-based
[2] = Antiproliferative activity against human H1975-TM cells harboring EGFR L858R/T790M/C797S mutant assessed as inhibition of cell growth incubated for 48 to 72 hrs by CCK-8 assay; format: functional, cell-based
[3] = Metabolic stability in human liver microsomes assessed as intrinsic clearance at 1 uM incubated upto 60 mins in presence of NADPH by LC-MS/MS analysis; format: ADME, Microsome; settings: read-out: CLH
A549 = assay: Antiproliferative activity against human A549 cells harboring EGFR wild type assessed as inhibition of cell growth incubated for 48 to 72 hrs by CCK-8 assay; format: functional, cell-based
[4] = Toxicity in BALB/c mouse xenografted with human H1975-TM cells assessed as change in body weight at 5 to 20 mg/kg,ip once daily for 14 days; format: organism-based; settings: in vivo, 336 h, dose 5-20 mg/kg, time 14 day
HCC827 [5] = assay: Antitumor activity against human HCC827 cells xenografted in BALB/c mouse assessed as tumor growth inhibition at 2.5 mg/kg,ip once daily for 28 days relative to control; format: functional; settings: HCC827, 672 h, time 28 day, read-out: TGI
[6] = Cmax in SPF ICR mouse at 5 mg/kg,ip measured upto 24 hrs by LC-MS/MS analysis; format: ADME, organism-based; settings: in vivo
[7] = Metabolic stability in mouse liver microsomes assessed as half-life at 1 uM incubated upto 60 mins in presence of NADPH by LC-MS/MS analysis; format: ADME, Microsome
A-431 = assay: Antiproliferative activity against human A-431 cells harboring EGFR wild type assessed as inhibition of cell growth incubated for 48 to 72 hrs by CCK-8 assay; format: functional, cell-based
[8] = AUC (0 to infinity) in SPF ICR mouse at 2 mg/kg,iv measured upto 24 hrs by LC-MS/MS analysis; format: ADME, organism-based; settings: in vivo
[9] = tested on: von Hippel-Lindau disease tumor suppressor/Epidermal growth factor receptor (Homo sapiens), P00533+P40337 [L858R,T790M,C797S]; assay: PROTAC activity at VHL/EGFR L858R/T790M/C797S mutant in human H1975-TM cells assessed as induction of EGFR degradation at 100 nM preincubated with MG-132 for 6 hrs followed by compound treatment for 48 hrs by Western blot analysis; format: cell-based
[10] = Metabolic stability in monkey liver microsomes assessed as half-life at 1 uM incubated upto 60 mins in presence of NADPH by LC-MS/MS analysis; format: ADME, Macaca mulatta, Microsome; settings: rhesus monkey
[11] = AUC (0 to infinity) in SPF ICR mouse at 5 mg/kg,ip measured upto 24 hrs by LC-MS/MS analysis; format: ADME, organism-based; settings: in vivo
[12] = Metabolic stability in rat liver microsomes assessed as intrinsic clearance at 1 uM incubated upto 60 mins in presence of NADPH by LC-MS/MS analysis; format: ADME, Microsome; settings: read-out: CLH
[13] = target: von Hippel-Lindau disease tumor suppressor/Epidermal growth factor receptor (Homo sapiens, UniProt P00533+P40337); assay: PROTAC activity at VHL/EGFR Del19 mutant in human HCC827 cells assessed as induction of EGFR degradation incubated for 72 hrs by Western blot analysis; format: cell-based
Sequence of von Hippel-Lindau disease tumor suppressor/Epidermal growth factor receptor (Homo sapiens, UniProt P00533+P40337) (P00533 whole entry, looked up, stated change not applied): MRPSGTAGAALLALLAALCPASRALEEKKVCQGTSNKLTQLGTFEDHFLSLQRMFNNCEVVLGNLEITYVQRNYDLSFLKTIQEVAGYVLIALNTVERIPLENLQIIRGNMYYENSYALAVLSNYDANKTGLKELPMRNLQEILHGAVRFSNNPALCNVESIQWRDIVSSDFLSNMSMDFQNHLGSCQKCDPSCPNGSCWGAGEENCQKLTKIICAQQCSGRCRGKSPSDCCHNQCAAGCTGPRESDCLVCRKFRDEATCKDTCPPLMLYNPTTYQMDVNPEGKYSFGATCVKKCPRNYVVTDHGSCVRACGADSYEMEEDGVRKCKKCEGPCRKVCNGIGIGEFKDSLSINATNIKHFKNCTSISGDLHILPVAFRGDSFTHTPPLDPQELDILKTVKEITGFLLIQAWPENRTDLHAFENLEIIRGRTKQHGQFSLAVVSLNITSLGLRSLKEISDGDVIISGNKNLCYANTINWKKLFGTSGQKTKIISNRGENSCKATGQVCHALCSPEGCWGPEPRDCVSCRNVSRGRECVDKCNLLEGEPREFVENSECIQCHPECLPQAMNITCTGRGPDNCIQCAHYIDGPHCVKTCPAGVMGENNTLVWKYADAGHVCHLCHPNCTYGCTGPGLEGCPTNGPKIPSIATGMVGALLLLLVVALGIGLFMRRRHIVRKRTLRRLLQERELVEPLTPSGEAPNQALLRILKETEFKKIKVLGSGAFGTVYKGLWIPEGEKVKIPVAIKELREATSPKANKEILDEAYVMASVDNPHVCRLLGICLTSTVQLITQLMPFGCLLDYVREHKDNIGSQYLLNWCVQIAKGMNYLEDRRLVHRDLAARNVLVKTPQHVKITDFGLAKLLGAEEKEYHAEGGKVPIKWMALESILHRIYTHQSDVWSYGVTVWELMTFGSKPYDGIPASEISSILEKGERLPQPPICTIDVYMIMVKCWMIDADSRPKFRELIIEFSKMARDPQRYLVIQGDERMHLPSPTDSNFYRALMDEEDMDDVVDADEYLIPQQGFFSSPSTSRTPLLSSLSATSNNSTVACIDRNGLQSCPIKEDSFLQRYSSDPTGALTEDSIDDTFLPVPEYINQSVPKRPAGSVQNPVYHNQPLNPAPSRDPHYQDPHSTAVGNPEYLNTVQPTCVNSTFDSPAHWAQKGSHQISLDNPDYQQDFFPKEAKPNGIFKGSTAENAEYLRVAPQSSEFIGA
Sequence of von Hippel-Lindau disease tumor suppressor/Epidermal growth factor receptor (Homo sapiens, UniProt P00533+P40337) (P40337 whole entry, looked up, stated change not applied): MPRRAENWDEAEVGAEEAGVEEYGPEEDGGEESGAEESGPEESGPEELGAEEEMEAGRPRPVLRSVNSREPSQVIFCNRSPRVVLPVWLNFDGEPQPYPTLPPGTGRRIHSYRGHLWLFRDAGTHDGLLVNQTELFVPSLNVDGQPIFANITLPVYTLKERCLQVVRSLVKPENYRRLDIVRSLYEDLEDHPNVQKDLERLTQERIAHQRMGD

NCI-H1975 [14] = assay: Antitumor activity against human NCI-H1975 cells xenografted in BALB/c mouse assessed as increase in EGFR degradation in tumor at 20 mg/kg,ip once daily for 22 days by Western blot analysis relative to control; format: functional; settings: time 22 day
[15] = Metabolic stability in dog liver microsomes assessed as elimination rate constant at 1 uM incubated upto 60 mins in presence of NADPH by LC-MS/MS analysis; format: ADME, Canis lupus familiaris, Microsome
[16] = Antitumor activity against human H1975-TM cells xenografted in BALB/c mouse assessed as tumor growth inhibition at 20 mg/kg,ip once daily for 14 days relative to control; format: functional; settings: 336 h, time 14 day, read-out: TGI
HCC827 [17] = assay: Antitumor activity against human HCC827 cells xenografted in BALB/c mouse assessed as tumor growth inhibition at 1.25 mg/kg,ip once daily for 28 days relative to control; format: functional; settings: HCC827, 672 h, time 28 day, read-out: TGI
[18] = tested on: von Hippel-Lindau disease tumor suppressor/Epidermal growth factor receptor (Homo sapiens), P00533+P40337 [L858R,T790M,C797S]; assay: PROTAC activity at VHL/EGFR L858R/T790M/C797S mutant in human H1975-TM cells assessed as maximal EGFR degradation at 0.03 to 2.5 uM incubated for 48 hrs by Western blot analysis relative to control; format: cell-based; settings: dose 0.03-2.5 µM
H1975-TM = assay: Antitumor activity against human H1975-TM cells xenografted in BALB/c mouse assessed as downregulation of ERK phosphorylation in tumor at 5 to 20 mg/kg,ip once daily for 14 days by Western blot analysis; format: functional, organism-based; settings: dose 5-20 mg/kg, time 14.0 day
[19] = Metabolic stability in rat liver microsomes assessed as elimination rate constant at 1 uM incubated upto 60 mins in presence of NADPH by LC-MS/MS analysis; format: ADME, Microsome
[20] = tested on: von Hippel-Lindau disease tumor suppressor/Epidermal growth factor receptor (Homo sapiens), P00533+P40337 [UNDEFINED MUTATION]; assay: PROTAC activity at VHL/EGFR Del19 mutant in human HCC827 cells assessed as maximal EGFR degradation at 1.56 to 100 nM incubated for 72 hrs by Western blot analysis relative to control; format: cell-based; settings: dose 1.56-100 nM
Sequence of von Hippel-Lindau disease tumor suppressor/Epidermal growth factor receptor (Homo sapiens), P00533+P40337 [UNDEFINED MUTATION] (P00533 whole entry, looked up, stated change not applied): as the sequence (P00533 whole entry, looked up, stated change not applied) above
Sequence of von Hippel-Lindau disease tumor suppressor/Epidermal growth factor receptor (Homo sapiens), P00533+P40337 [UNDEFINED MUTATION] (P40337 whole entry, looked up, stated change not applied): as the sequence (P40337 whole entry, looked up, stated change not applied) above

[21] = tested on: von Hippel-Lindau disease tumor suppressor/Epidermal growth factor receptor (Homo sapiens), P00533+P40337 [UNDEFINED MUTATION]; assay: PROTAC activity at VHL/EGFR Del19 mutant in human HCC827 cells assessed as induction of EGFR degradation at 100 nM by Western blot analysis; format: cell-based; settings: TDE = time-dependent effect
[22] = Antitumor activity against human H1975-TM cells xenografted in BALB/c mouse assessed as tumor growth inhibition at 10 mg/kg,ip once daily for 14 days relative to control; format: functional; settings: 336 h, time 14 day, read-out: TGI
[23] = Cmax in SPF ICR mouse at 2 mg/kg,iv measured upto 24 hrs by LC-MS/MS analysis; format: ADME, organism-based; settings: in vivo
[24] = tested on: von Hippel-Lindau disease tumor suppressor/Epidermal growth factor receptor (Homo sapiens), P00533+P40337 [UNDEFINED MUTATION]; assay: PROTAC activity at VHL/EGFR Del19 mutant in human HCC827 cells assessed as downregulation of AKT phosphorylation incubated for 72 hrs by Western blot analysis; format: cell-based
[25] = target: von Hippel-Lindau disease tumor suppressor/Epidermal growth factor receptor (Homo sapiens, UniProt P00533+P40337, T790M/L858R); assay: PROTAC activity at VHL/EGFR L858R/T790M mutant in human NCI-H1975 cells assessed as induction of EGFR degradation incubated for 72 hrs by Western blot analysis; format: cell-based
Sequence of von Hippel-Lindau disease tumor suppressor/Epidermal growth factor receptor (Homo sapiens, UniProt P00533+P40337, T790M/L858R) (P00533 25-1210 T790M/L858R limits assumed, stated change not applied): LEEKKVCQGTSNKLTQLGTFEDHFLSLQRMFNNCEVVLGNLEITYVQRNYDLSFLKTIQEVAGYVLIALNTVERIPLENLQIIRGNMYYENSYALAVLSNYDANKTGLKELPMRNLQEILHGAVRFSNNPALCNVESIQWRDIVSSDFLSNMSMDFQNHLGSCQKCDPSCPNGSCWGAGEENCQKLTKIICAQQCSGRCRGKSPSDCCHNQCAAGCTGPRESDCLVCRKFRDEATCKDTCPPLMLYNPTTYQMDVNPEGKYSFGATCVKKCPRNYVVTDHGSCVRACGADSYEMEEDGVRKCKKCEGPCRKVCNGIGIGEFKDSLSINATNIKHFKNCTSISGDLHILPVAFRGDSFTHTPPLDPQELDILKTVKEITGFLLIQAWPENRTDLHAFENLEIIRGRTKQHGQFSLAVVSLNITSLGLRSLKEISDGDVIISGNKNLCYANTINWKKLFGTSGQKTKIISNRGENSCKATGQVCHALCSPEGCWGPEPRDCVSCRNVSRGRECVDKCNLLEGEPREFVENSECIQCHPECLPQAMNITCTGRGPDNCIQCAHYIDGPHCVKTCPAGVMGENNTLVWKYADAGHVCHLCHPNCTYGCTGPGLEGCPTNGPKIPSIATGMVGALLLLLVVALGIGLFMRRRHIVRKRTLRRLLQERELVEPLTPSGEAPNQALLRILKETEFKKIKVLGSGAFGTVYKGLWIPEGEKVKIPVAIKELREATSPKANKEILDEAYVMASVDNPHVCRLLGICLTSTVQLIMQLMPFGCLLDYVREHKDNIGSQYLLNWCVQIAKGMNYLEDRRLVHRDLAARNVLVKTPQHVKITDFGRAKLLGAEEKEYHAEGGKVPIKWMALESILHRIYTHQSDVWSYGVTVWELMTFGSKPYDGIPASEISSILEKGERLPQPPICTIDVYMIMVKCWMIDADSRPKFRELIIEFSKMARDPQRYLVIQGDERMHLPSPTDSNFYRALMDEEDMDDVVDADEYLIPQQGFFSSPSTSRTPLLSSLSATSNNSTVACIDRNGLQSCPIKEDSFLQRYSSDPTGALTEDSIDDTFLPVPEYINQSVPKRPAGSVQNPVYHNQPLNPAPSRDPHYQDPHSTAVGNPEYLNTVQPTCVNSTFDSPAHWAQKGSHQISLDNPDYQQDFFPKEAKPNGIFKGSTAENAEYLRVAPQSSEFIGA
Sequence of von Hippel-Lindau disease tumor suppressor/Epidermal growth factor receptor (Homo sapiens, UniProt P00533+P40337, T790M/L858R) (P40337 whole entry, stated change not applied): as the sequence (P40337 whole entry, looked up, stated change not applied) above

NCI-H1975 [26] = assay: Antitumor activity against human NCI-H1975 cells xenografted in BALB/c mouse assessed as tumor growth inhibition at 5 mg/kg,ip once daily for 22 days relative to control; format: functional; settings: NCI-H1975, 528 h, time 22 day, read-out: TGI
[27] = tested on: von Hippel-Lindau disease tumor suppressor/Epidermal growth factor receptor (Homo sapiens), P00533+P40337 [UNDEFINED MUTATION]; assay: PROTAC activity at VHL/EGFR Del19 mutant in human HCC827 cells assessed as induction of EGFR degradation at 100 nM preincubated with MLN-4924 for 6 hrs followed by compound treatment for 48 hrs by Western blot analysis; format: cell-based

Question: Which results are given for `CCN(CC)C/C=C/C(=O)Nc1cc2c(Nc3ccc(F)c(Cl)c3)ncnc2cc1OCc1cn(CCCCCCCC(=O)N[C@H](C(=O)N2C[C@H](O)C[C@H]2C(=O)N[C@H](C)c2ccc(-c3scnc3C)cc2)C(C)(C)C)nn1`?
Answer: Activity [1]: Dose-Dependent Effect; IC50 [2]: 3.24 µM; microsomal CLint at 1 µM [3]: 84 µL/min/mg; IC50 (A549): > 20 µM; Activity [4]: Non-Toxic; inhibition in vivo at 2.5 mg/kg (HCC827 [5]): 67%; Cmax [6]: 656 ng/mL; half-life at 1 µM [7]: 1.95 h; IC50 (A-431): > 20 µM; AUC(0-inf) [8]: 2360 ng·h/mL; Activity [9]: inactive; half-life at 1 µM [10]: 0.632 h; AUC(0-inf) [11]: 2830 ng·h/mL; microsomal CLint at 1 µM [12]: 7.4 µL/min/mg; DC50 [13]: 0.0179 µM; Activity (NCI-H1975 [14]): >75%; k el at 1 h, 1 µM [15]: 0.00015 s⁻¹; inhibition in vivo at 20 mg/kg [16]: 50%; inhibition in vivo at 1.25 mg/kg (HCC827 [17]): 41%; Emax [18]: 94%; Activity (H1975-TM): Active; k el at 1 h, 1 µM [19]: 6.67e-05 s⁻¹; Emax [20]: 100%; Activity [21]: Tde; inhibition in vivo at 10 mg/kg [22]: 34%; Cmax [23]: 7830 ng/mL; Activity [24]: Dose-Dependent Effect; DC50 [25]: 0.25 µM; inhibition in vivo at 5 mg/kg (NCI-H1975 [26]): 56%; Activity [27]: inactive

Reference: ChEMBL document CHEMBL5523716, “Discovery of novel EGFR-PROTACs capable of degradation of multiple EGFR-mutated proteins” (Eur J Med Chem, 2024)
